Measured values from patent publication US20240239775A1, “FXR REGULATOR, PREPARATION METHOD THEREFOR, PHARMACEUTICAL COMPOSITION THEREOF AND USE THEREOF” (QINGDAO RUIJI MEDICAL TECHNOLOGY CO., LTD., priority 2021, published 2024).

Target: T1, FXR (Homo sapiens, UniProt Q96RI1)
T1 construct: 5 μL of 20 nM FXR-LBD Complete Coregulator buffer G; purchased ThermoFisher PV4833
T1 sequence (Q96RI1 262-486 limits assumed): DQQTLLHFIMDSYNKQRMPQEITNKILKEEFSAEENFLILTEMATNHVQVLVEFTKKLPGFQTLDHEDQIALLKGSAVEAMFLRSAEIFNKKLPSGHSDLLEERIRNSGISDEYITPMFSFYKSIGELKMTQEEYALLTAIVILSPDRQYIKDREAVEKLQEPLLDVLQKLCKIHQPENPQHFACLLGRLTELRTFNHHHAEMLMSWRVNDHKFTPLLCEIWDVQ
Assay: FXR antagonist screening by TR-FRET (LanthaScreen TR-FRET FXR co-activation assay kit)
Format: biochemical
Conditions: Table 1.1, FXR antagonistic activity; TR-FRET with CDCA; geometric means of at least two independent runs
Description: FXR activity was evaluated by time-resolved fluorescence resonance energy transfer (TR-FRET) assay, using LanthaScreen™ TR-FRET FXR co-activation assay kit (ThermoFisher, Cat. PV4833). For agonist screening, 10 μL of Complete Coregulator buffer G containing the corresponding concentration of the compound to be tested, 5 μL of 20 nM FXR-LBD Complete Coregulator buffer G, and 5 μL of 2.0 μM Fluorescein-SRC2-2/20 nM Tb-anti-GST antibody Complete Coregulator buffer G were added to each well of a 384-well black plate (Coring) in sequence. […] Three duplicate wells were set up for each compound, with CDCA as the positive compound and DMSO as the solvent control. For antagonist screening, 5 μL of Complete Coregulator buffer G containing the corresponding concentration of the compound to be tested, 5 μL of 20 nM FXR-LBD Complete Coregulator buffer G, 5 μL of 200 μM CDCA FXR-LBD Complete Coregulator buffer G, and 5 μL of 2.0 μM Fluorescein-SRC2-2/20 nM Tb-anti-GST antibody Complete Coregulator buffer G were added to each well of a 384-well black plate (Coring) in sequence and incubated at room temperature for 10 h. Following operations were the same as those for agonist screening

SMILES | IC50
CCOC(=O)c1oc2ccc(S(=O)(=O)N(CCc3ccccc3)Cc3ccc4ccccc4c3)cc2c1C [Example M4-45, ethyl 3-methyl-5-(N-(naphthalen-2-ylmethyl)-N-phenethylsulfamoyl)benzofuran-2-carboxylate] | 50 to 100 µM
CCOC(=O)c1oc2ccc(S(=O)(=O)N(CCc3ccccc3)Cc3c(F)cccc3Cl)cc2c1C [Example M4-47, ethyl 3-methyl-5-(N-(2-fluoro-6-chlorobenzyl)-N-phenethylsulfamoyl)benzofuran-2-carboxylate] | 50 to 100 µM
CCOC(=O)c1oc2ccc(S(=O)(=O)N(CCc3ccccc3)Cc3c(F)cccc3C(F)(F)F)cc2c1C [Example M4-48, ethyl 3-methyl-5-(N-(2-fluoro-6-(trifluoromethyl)benzyl)-N-phenethylsulfamoyl)benzofuran-2-carboxylate] | 50 to 100 µM
CCOC(=O)c1oc2ccc(S(=O)(=O)N(CCc3ccccc3)Cc3cccc(F)c3)cc2c1C [Example M4-20, ethyl 3-methyl-5-(N-(3-fluorobenzyl)-N-phenethylsulfamoyl)benzofuran-2-carboxylate] | 50 to 100 µM
CCOC(=O)c1oc2ccc(S(=O)(=O)N(CCc3ccccc3)c3ccc(N4CCN(C(C)=O)CC4)cc3)cc2c1C [Example M8-68, ethyl 3-methyl-5-(N-(4-(4-acetylpiperazin-1-yl)phenyl)-N-phenethylsulfamoyl)benzofuran-2-carboxylate] | 50 to 100 µM
CCOC(=O)c1oc2ccc(S(=O)(=O)N(CCc3ccccc3)c3ccccc3N3CCN(C(=O)c4ccccc4)CC3)cc2c1C [Example M10-96] | 50 to 100 µM
CCOC(=O)c1oc2ccc(S(=O)(=O)N(CCc3ccccc3)Cc3cccc(Oc4ccccc4)c3)cc2c1C [Example M4-27] | 50 to 100 µM
CCOC(=O)c1oc2ccc(S(=O)(=O)N(CCc3ccccc3)Cc3ccc(SC(F)(F)F)cc3)cc2c1C [Example M4-35, ethyl 3-methyl-5-(N-(4-(trifluoromethylthio)benzyl)-N-phenethylsulfamoyl)benzofuran-2-carboxylate] | 50 to 100 µM
CCOC(=O)c1oc2ccc(S(=O)(=O)N(CCc3ccccc3)Cc3ccc(OC(F)(F)F)cc3)cc2c1C [Example M4-34, ethyl 3-methyl-5-(N-(4-(trifluoromethoxy)benzyl)-N-phenethylsulfamoyl)benzofuran-2-carboxylate] | 50 to 100 µM
CCOC(=O)c1oc2ccc(S(=O)(=O)N(CCc3ccccc3)Cc3ccccc3)cc2c1C [Example F27-S8, ethyl 5-(N-benzyl-N-phenethylsulfamoyl)-3-methylbenzofuran-2-carboxylate] | 50 to 100 µM
CCOC(=O)c1oc2ccc(S(=O)(=O)N(CCc3ccccc3)Cc3ccc(C(=O)c4ccccc4)cc3)cc2c1C [Example M4-85, ethyl 3-methyl-5-(N-(4-benzoylbenzyl)-N-phenethylsulfamoyl)benzofuran-2-carboxylate] | 50 to 100 µM

Same assay, conditions: Table 1.2, FXR antagonistic activity; TR-FRET with CDCA; geometric means of at least two independent runs

SMILES | IC50
Cc1c(C(=O)O)oc2ccc(S(=O)(=O)N(CCc3ccccc3)c3ccccc3N3CCN(C(=O)c4ccc(Cl)s4)CC3)cc12 [Example F27-S128, 5-(N-(2-(4-(5-chlorothiophene-2-carbonyl)piperazin-1-yl)phenyl)-N-phenethylsulfamoyl)-3-methyl benzofuran-2-carboxylic acid] | 0.1 to 10 µM
Cc1c(C(=O)O)oc2ccc(S(=O)(=O)N(CCc3ccccc3)c3ccccc3N3CCC(NC(=O)c4sccc4Br)CC3)cc12 [Example F27-S147, 5-(N-(2-(4-(3-bromothiophene-2-carboxamido)piperidin-1-yl)phenyl)-N-phenethylsulfamoyl)-3-methylbenzofuran-2-carboxylic acid] | 0.1 to 10 µM
Cc1c(C(=O)O)oc2ccc(S(=O)(=O)N(CCc3ccccc3)c3ccccc3N3CCN(C(=O)c4cnco4)CC3)cc12 [Example F27-S131, 3-methyl-5-(N-(2-(4-(oxazole-5-carbonyl)piperazin-1-yl)phenyl)-N-phenethylsulfamoyl)benzofuran-2-carboxylic acid] | 0.1 to 10 µM
CC(=O)c1ccc(C(=O)N2CCN(c3ccccc3N(CCc3ccccc3)S(=O)(=O)c3ccc4oc(C(=O)O)c(C)c4c3)CC2)cc1 [Example F27-S115, 5-(N-(2-(4-(4-acetylbenzoyl)piperazin-1-yl)phenyl)-N-phenethylsulfamoyl)-3-methylbenzofuran-2-carboxylic acid] | 0.1 to 10 µM
CCOC(=O)c1oc2ccc(S(=O)(=O)N(CCc3ccccc3)c3ccccc3N3CCCN(C(=O)c4sccc4Br)CC3)cc2c1C [Example M10-154, Ethyl 5-(N-(2-(4-(3-bromothiophene-2-formyl)-1,4-diazepin-1-yl)phenyl)-N-phenethylsulfamoyl)-3-methylbenzofuran-2-carboxylate] | 50 to 100 µM
Cc1c(C(=O)O)oc2ccc(S(=O)(=O)N(CCc3ccccc3)c3ccccc3N3CCN(C(=O)c4c[nH]cn4)CC3)cc12 [Example F27-S144, 5-(N-(2-(4-(1H-imidazole-4-formyl)piperazin-1-yl)phenyl)-N-phenethylsulfamoyl)3-methylbenzofuran-2-carboxylic acid] | 0.1 to 10 µM
CCOC(=O)c1oc2ccc(S(=O)(=O)N(CCc3ccccc3)c3ccccc3N3CCN(C(=O)c4ccccc4OC)CC3)cc2c1C [Example M10-136, Ethyl 5-(N-(2-(4-(2-methoxybenzoyl)piperazin-1-yl)phenyl)-N-phenethylsulfamoyl)3-methylbenzo furan-2-carboxylate] | 50 to 100 µM
CCOC(=O)c1oc2ccc(S(=O)(=O)N(CCc3ccccc3)c3ccccc3N3CCN(C(=O)c4cc(C)ccc4C)CC3)cc2c1C [Example M10-137, Ethyl 5-(N-(2-(4-(2,5-Dimethylbenzoyl)piperazin-1-yl)phenyl)-N-phenethylsulfamoyl)3-methylbenzofuran-2-carboxylate] | 50 to 100 µM
CCOC(=O)c1oc2ccc(S(=O)(=O)N(CCc3ccccc3)c3ccccc3N3CCN(C(=O)c4c[nH]cn4)CC3)cc2c1C [Example M10-144, Ethyl 5-(N-(2-(4-(1H-imidazole-4-carbonyl)piperazin-1-yl)phenyl)-N-phenethylsulfamoyl)3-methylbenzofuran-2-carboxylate] | 50 to 100 µM
Cc1c(C(=O)O)oc2ccc(S(=O)(=O)N(CCc3ccccc3)c3ccccc3N3CCN(C(=O)c4ccc(C#Cc5ccccc5)cc4)CC3)cc12 [Example F27-S138, 5-(N-(2-(4-(4-(phenylethynyl)benzoyl)piperazin-1-yl)phenyl)-N-phenethylsulfamoyl)3-methylbenzofuran-2-carboxylic acid] | 0.1 to 10 µM
CCC(CC)C(=O)N1CCN(c2ccccc2N(CCc2ccccc2)S(=O)(=O)c2ccc3oc(C(=O)O)c(C)c3c2)CC1 [Example F27-S145, 5-(N-(2-(4-(2-ethylbutyryl)piperazin-1-yl)phenyl)-N-phenethylsulfamoyl)3-methylbenzofuran-2-carboxylic acid] | 0.1 to 10 µM
Cc1c(C(=O)O)oc2ccc(S(=O)(=O)N(CCc3ccccc3)c3ccccc3N3CC4CC(C3)N4C(=O)c3sccc3Br)cc12 [Example F27-S151, 5-(N-(2-(6-(3-bromothiophene-2-carbonyl)-3,6-diazabicyclo[3.1.1]heptan-3-yl)phenyl)-N-phenethylsulfamoyl)-3-methylbenzofuran-2-carboxylic acid] | 0.1 to 10 µM
CCOC(=O)c1oc2ccc(S(=O)(=O)N(CCc3ccccc3)c3ccccc3N3CCN(C(=O)c4ccsc4)CC3)cc2c1C [Example M10-119, Ethyl 3-methyl-5-(N-phenethyl-N-(2-(4-(thiophene-3-carbonyl)piperazin-1-yl)phenyl)sulfamoyl)benzofuran-2-carboxylate] | 50 to 100 µM
CCOC(=O)c1oc2ccc(S(=O)(=O)N(CCc3ccccc3)c3ccccc3N3CCN(C(=O)c4ccc(NC(C)=O)cc4)CC3)cc2c1C [Example M10-109, Ethyl 5-(N-(2-(4-(4-Acetylaminobenzoyl)piperazin-1-yl)phenyl)-N-phenethylsulfamoyl)-3-methyl benzofuran-2-carboxylate] | 50 to 100 µM
Cc1c(C(=O)O)oc2ccc(S(=O)(=O)N(CCc3ccccc3)c3ccccc3N3CCN(C(=O)c4ccc[nH]4)CC3)cc12 [Example F27-S124, 5-(N-(2-(4-(1H-pyrrole-2-carbonyl)piperazin-1-yl)phenyl)-N-phenethylsulfamoyl)-3-methylbenzofuran-2-carboxylic acid] | 0.1 to 10 µM
CCOC(=O)c1oc2cc(S(=O)(=O)N(CCc3ccccc3)c3ccccc3N3CCN(C(=O)c4sccc4Br)CC3)ccc2c1C [Example M10-163, Ethyl 6-(N-(2-(4-(3-bromothiophene-2-formyl)piperazin-1-yl)phenyl)-N-phenethylsulfamoyl)-3-methylbenzofuran-2-carboxylate] | 50 to 100 µM
CCOC(=O)c1oc2ccc(S(=O)(=O)N(CCc3ccccc3)c3ccccc3N3CCN(C(=O)c4cc(Br)cs4)CC3)cc2c1C [Example M10-127, Ethyl 5-(N-(2-(4-(4-bromothiophene-2-carbonyl)piperazin-1-yl)phenyl)-N-phenethylsulfamoyl)-3-methylbenzofuran-2-carboxylate] | 50 to 100 µM
